Assay results published in patent publication US20130253019A1, “LYSOPHOSPHATIDIC ACID RECEPTOR ANTAGONISTS FOR THE TREATMENT OF CONDITIONS OR DISEASES OF THE EYE” (priority 2010, published 2013).
pIC50: −log10 of the molar value.

Key:
LPA5 = LPA5 (Homo sapiens, UniProt Q9H1C0); assay: LPA5 Ca flux assay; type: cell-based
Human LPA1 = molecular target: T1, Human LPA1 (Homo sapiens, UniProt Q92633); assay: LPA1 calcium flux assay; type: cell-based; conditions: CHO cells expressing human LPA1, 10 nM LPA; read-out: Ca Flux IC50 LPA1
T1 construct: the full-length cDNA for human LPA1 was obtained by PCR of the reverse transcription reaction; expressed in transfected cells
T1 sequence (Q92633 whole entry): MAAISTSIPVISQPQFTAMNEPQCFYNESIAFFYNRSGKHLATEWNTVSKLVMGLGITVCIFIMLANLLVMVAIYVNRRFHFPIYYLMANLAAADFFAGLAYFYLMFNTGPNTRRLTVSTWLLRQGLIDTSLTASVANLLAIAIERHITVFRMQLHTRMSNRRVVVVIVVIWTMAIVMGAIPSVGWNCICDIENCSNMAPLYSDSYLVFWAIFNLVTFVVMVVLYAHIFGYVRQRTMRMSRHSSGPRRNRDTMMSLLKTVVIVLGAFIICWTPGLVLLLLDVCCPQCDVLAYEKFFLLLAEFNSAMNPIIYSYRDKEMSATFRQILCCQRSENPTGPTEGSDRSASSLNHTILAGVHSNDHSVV
Protocol: A 1.1 kb cDNA encoding the human LPA1 receptor was cloned from human lung. Human lung RNA (Clontech Laboratories, Inc. USA) was reverse transcribed using the RETROscript kit (Ambion, Inc.) and the full-length cDNA for human LPA1 was obtained by PCR of the reverse transcription reaction. The nucleotide sequence of the cloned human LPA1 was determined by sequencing and confirmed to be identical to the published human LPA1 sequence (An et al. Biochem. Biophys. Res. Commun. 231:619 (1997). The cDNA was cloned into the pcDNA5/FRT expression plasmid and transfected in CHO cells using lipofectamine 2000 (Invitrogen Corp., USA). Clones stably expressing human LPA1 were selected using hygromycin and identified as cells that show Ca-influx in response to LPA.
(§1) Human LPA1 or LPA3 expressing CHO cells are seeded at 20,000-45,000 cells per well in a 96-well poly-D-lysine coated plate one or two days before the assay. Prior to the assay, the cells are washed once with PBS and then cultured in serum-free media for at least 6 hrs and up to 24 hrs. On the day of the assay, a calcium indicator dye (Calcium 5, Molecular Devices) in assay buffer (HBSS with Ca^2+ and Mg^2+ and containing 20 mM Hepes and 0.3% fatty-acid free human serum albumin) is added to each well and incubation continued for 1 hour at room temperature. 10 μl of test compounds in 2.5% DMSO are added to the cells and incubation continued at room temperature for 30 minutes. Cells are the stimulated by the addition of 10 nM LPA and intracellular Ca^2+ measured using the Flexstation 3 (Molecular Devices). IC50s are determined using Symyx Assay Explorer analysis of drug titration curves.

LPA4 = LPA4 (Homo sapiens, UniProt Q99677); assay: LPA4 Ca flux assay; type: cell-based
LPA4, sequence (Q99677 whole entry, species assumed): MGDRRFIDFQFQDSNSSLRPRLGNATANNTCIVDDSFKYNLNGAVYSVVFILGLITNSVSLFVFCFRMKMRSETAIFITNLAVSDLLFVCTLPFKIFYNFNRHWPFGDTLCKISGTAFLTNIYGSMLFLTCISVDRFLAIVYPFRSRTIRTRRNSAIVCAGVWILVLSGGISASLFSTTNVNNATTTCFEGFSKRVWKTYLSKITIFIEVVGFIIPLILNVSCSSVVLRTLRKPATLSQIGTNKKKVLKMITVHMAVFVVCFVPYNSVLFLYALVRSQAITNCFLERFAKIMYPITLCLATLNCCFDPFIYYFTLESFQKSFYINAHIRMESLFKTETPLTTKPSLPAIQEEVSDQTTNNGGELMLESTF

Human LPA3 = molecular target: T2, Human LPA3 (Homo sapiens, UniProt Q9UBY5); assay: LPA3 calcium flux assay; type: cell-based; conditions: CHO cells expressing human LPA3, 10 nM LPA; read-out: Ca Flux IC50 LPA3
T2 construct: The full-length cDNA fragment for human LPA3 was obtained by PCR from the vector; expressed in transfected cells; cDNA from the Missouri S&T cDNA Resource Center
T2 sequence (Q9UBY5 1-353): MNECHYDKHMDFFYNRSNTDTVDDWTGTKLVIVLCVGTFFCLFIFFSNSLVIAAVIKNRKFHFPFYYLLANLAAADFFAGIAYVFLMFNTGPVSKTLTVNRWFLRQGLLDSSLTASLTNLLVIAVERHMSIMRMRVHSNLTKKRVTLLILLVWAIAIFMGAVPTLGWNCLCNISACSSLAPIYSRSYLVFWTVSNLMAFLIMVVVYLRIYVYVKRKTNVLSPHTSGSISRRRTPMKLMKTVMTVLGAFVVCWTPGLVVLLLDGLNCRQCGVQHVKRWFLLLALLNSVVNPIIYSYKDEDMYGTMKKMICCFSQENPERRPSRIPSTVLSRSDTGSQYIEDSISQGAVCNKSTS
Protocol: A vector containing the human LPA3 receptor cDNA was obtained from the Missouri S&T cDNA Resource Center (www.cdna.org). The full-length cDNA fragment for human LPA3 was obtained by PCR from the vector. The nucleotide sequence of the cloned human LPA3 was determined by sequencing and confirmed to be identical to the published human LPA3 sequence (NCBI accession number NM_012152). The cDNA was cloned into the pcDNA5/FRT expression plasmid and transfected in CHO cells using lipofectamine 2000 (Invitrogen Corp., USA). Clones stably expressing human LPA3 were selected using hygromycin and identified as cells that show Ca-influx in response to LPA.
as §1

human LPA2 = molecular target: T3, human LPA2 (Homo sapiens, UniProt Q9HBW0); assay: LPA2 calcium flux assay; type: cell-based; conditions: BT-20 cells or B103 cells transiently expressing human LPA2; read-out: Ca Flux IC50 LPA2
T3 construct: expressed in transfected cells; host or cells: B103 cells (transient), or alternatively BT-20 human breast cancer cells (endogenous)
T3 sequence (Q9HBW0 whole entry): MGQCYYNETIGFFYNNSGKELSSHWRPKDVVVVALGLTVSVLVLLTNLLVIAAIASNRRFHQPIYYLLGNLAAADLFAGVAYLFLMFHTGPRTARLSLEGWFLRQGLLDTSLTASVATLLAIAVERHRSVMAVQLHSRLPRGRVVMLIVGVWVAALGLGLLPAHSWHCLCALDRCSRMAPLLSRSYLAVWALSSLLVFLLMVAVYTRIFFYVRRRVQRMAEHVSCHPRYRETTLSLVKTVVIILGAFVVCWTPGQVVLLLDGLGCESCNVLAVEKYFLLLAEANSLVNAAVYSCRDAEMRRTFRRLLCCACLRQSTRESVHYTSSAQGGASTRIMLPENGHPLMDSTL
Protocol: An expression vector encoding the human LPA2 cDNA was transiently transfected into B103 cells using Lipofectamine™ 2000 (Invitrogen) following the manufacturers instruction. On the day before the assay, 30,000-35,000 cells/well were seeded together with 0.2 μl lipofectamine 2000 and 0.2 μg human LPA2 expression vector in 96-well Poly-D-Lysine coated black-wall clear-bottom plates (BD BioCoat) in DMEM+10% FBS. Following an overnight culture, cells were washed once with PBS then cultured in serum-free media for 4 hours prior to start of the calcium flux assay.
LPA2 calcium flux is measured using at least one of two different assays. In one assay, BT-20 human breast cancer cells are seeded at 25,000-35,000 cells per well in 150 μl complete media on Poly-D-Lysine coated black-wall clear-bottom plates. Following an overnight culture, cells are washed once with PBS then serum starved for 4-6 hours prior to the assay. On the day of the assay, a calcium indicator dye (Calcium 5, Molecular Devices) in assay buffer (HBSS with Ca^2+ and Mg^2+ and containing 20 mM Hepes and 0.3% fatty-acid free human serum albumin) is added to each well and incubation continued for 15 minutes at 37° C. 25 μl of test compounds in 2.5% DMSO are added to the cells and incubation continued at 37° C. for 15-30 minutes. Cells are the stimulated by the addition of 100 nM LPA and intracellular Ca^2+ measured using the Flexstation 3 (Molecular Devices). IC50s are determined using Symyx Assay Explorer analysis of drug titration curves In the second assay, B103 cells transiently expressing huma LPA2 are serum starved for 4 hours. A calcium indicator dye (Calcium 4, Molecular Devices) in assay buffer (HBSS with Ca^2+ and Mg^2+ and containing 20 mM Hepes and 0.3% fatty-acid free human serum albumin) is then added to each well and incubation continued for 1 hour at 37° C. 10 μl of test compounds in 2.5% DMSO are added to the cells and incubation continued at room temperature for 30 minutes. Cells are the stimulated by the addition of 10 nM LPA and intracellular Ca^2+ measured using the Flexstation 3 (Molecular Devices). IC50s are determined using Symyx Assay Explorer analysis of drug titration curves.

CNV lesion = conditions: po, 30 mg/kg, 336 h

LPA5, sequence (Q9H1C0 whole entry, species assumed): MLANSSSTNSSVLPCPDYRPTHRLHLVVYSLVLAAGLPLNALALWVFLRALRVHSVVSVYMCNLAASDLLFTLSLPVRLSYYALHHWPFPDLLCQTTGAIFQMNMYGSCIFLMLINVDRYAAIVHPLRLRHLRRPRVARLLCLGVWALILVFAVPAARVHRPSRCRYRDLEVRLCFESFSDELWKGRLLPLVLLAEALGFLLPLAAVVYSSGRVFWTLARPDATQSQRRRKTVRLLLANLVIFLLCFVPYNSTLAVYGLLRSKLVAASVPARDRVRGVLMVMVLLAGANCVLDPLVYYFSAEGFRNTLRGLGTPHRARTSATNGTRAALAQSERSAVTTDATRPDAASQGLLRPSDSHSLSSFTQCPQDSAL

pIC50 (LPA5) | pIC50 (Human LPA1) | pIC50 (LPA4) | pIC50 (Human LPA3) | pIC50 (human LPA2) | SMILES | decrease of CNV lesion volume (CNV lesion)
< 6.00 | > 6.70 | < 6.00 | < 6.00 | < 6.00 | Cc1noc(-c2ccc(-c3ccc(CC(=O)O)cc3)cc2)c1NC(=O)O[C@H](C)c1ccccc1 [Compound A, (R)-2-(4′-(3-methyl-4-((1-phenylethoxy)carbonylamino)isoxazol-5-yl)biphenyl-4-yl)acetic acid] | –
< 6.00 | > 6.70 | < 6.00 | < 6.00 | < 6.00 | Cc1noc(-c2ccc(-c3ccc(C4(C(=O)O)CC4)cc3)cc2)c1NC(=O)O[C@H](C)c1ccccc1 [Compound B, (R)-1-(4′-(3-methyl-4-((1-phenylethoxy)carbonylamino)isoxazol-5-yl)biphenyl-4-yl)cyclopropanecarboxylic acid] | 11%
< 6.00 | > 6.70 | < 6.00 | < 6.00 | < 6.00 | Cc1noc(-c2ccc(-c3ccc(CC(=O)O)cc3)cc2)c1NC(=O)O[C@H](C)c1ccccc1Cl [Compound C, (R)-2-(4′-(4-((1-(2-chlorophenyl)ethoxy)carbonylamino)-3-methylisoxazol-5-yl)biphenyl-4-yl)acetic acid] | –
< 6.00 | > 6.70 | < 6.00 | < 6.00 | 6.00 to 6.70 | Cc1noc(-c2ccc(-c3ccc(C4(C(=O)NS(C)(=O)=O)CC4)cc3)cc2)c1NC(=O)O[C@H](C)c1ccccc1 [Compound D, {5-[4′-(1-Methanesulfonylaminocarbonyl-cyclopropyl)-biphenyl-4-yl]-3-methyl-isoxazol-4-yl}-carbamic acid (R)-1-phenyl-ethyl ester] | –
< 6.00 | > 6.70 | – | 6.00 to 6.70 | < 6.00 | Cc1noc(-c2ccc(-c3ccc(C4(C(=O)O)CC4)cc3)cc2)c1NC(=O)O[C@H](C)c1ccccc1Cl [Compound E, 1-(4′-{4-[(R)-1-(2-Chloro-phenyl)-ethoxycarbonylamino]-3-methyl-isoxazol-5-yl}-biphenyl-4-yl)-cyclopropanecarboxylic acid] | –
– | > 6.70 | < 6.00 | < 6.00 | – | C[C@@H](OC(=O)Nc1cnoc1-c1ccc(-c2ccc(C3(C(=O)O)CC3)cc2)cc1)c1ccccc1 [Compound F, 1-{4′-[4-((R)-1-Phenyl-ethoxycarbonylamino)-isoxazol-5-yl]-biphenyl-4-yl}-cyclopropanecarboxylic acid] | –
< 6.00 | > 6.70 | < 6.00 | < 6.00 | < 6.00 | Cc1noc(-c2ccc(-c3ccc(C4(c5nc(=O)o[nH]5)CC4)cc3)cc2)c1NC(=O)O[C@H](C)c1ccccc1 [Compound G, (3-Methyl-5-{4′-[1-(5-oxo-2,5-dihydro-[1,2,4]oxadiazol-3-yl)-cyclopropyl]-biphenyl-4-yl}-isoxazol-4-yl)-carbamic acid (R)-1-phenyl-ethyl ester] | –
< 6.00 | > 6.70 | < 6.00 | < 6.00 | < 6.00 | Cc1noc(-c2ccc(-c3ccc(C4(c5nnn[nH]5)CC4)cc3)cc2)c1NC(=O)O[C@H](C)c1ccccc1 [Compound H, (3-Methyl-5-{4′-[1-(1H-tetrazol-5-yl)-cyclopropyl]-biphenyl-4-yl}-isoxazol-4-yl)-carbamic acid (R)-1-phenyl-ethyl ester] | –
